In EP0054589B1, “Organic phosphoric acid ester derivatives, a process for preparing the same and insecticidal, miticidal or nematocidal compositions containing the same” (priority 1980, dated 1982):

Columns and labels:
rice stem borer = assay: Insecticidal effect on rice stem borer, 3rd-instar larvae (rice seedling dip); type: in vivo, Chilo suppressalis; conditions: after 72 hours, 25°C
Procedure: (§1) (A) A wettable powder prepared as described in Formulation Example 5 was diluted with water to a predetermined concentration. Rice seedlings were dipped into the dilute solution and placed in a 60 ml volume cup made of vinyl chloride resin, and 10 3rd-instar larvae of rice stem borer were put in each cup. The cups were capped and maintained at 25°C.
as §1, with “(B) A” for “(A) A”, “Example 7” for “Example 5”

tobacco cutworm [1] = assay: Insecticidal effect on tobacco cutworm (cabbage leaf dip); type: in vivo, Prodenia litura; conditions: after 48 hours, 25°C
Procedure: (§2) (A) An emulsifiable concentrate prepared as described in Formulation Example 1 was diluted with water to a predetermined concentration and then cabbage leaves were dipped into the dilute solution and dried in air and placed in a 60 ml volume cup made of vinyl chloride resin. 3rd-instar larvae of tobacco cutworm were put in each cup and maintained at 25°C. After 48 hours, percent mortality was assessed. The test was replicated 3 times for each compound using 30 insects in each test.
as §2, with “(B)” for “(A)”, “3” for “1”

Apple = assay: Phytotoxicity on various crops; type: in vivo; design: key: Symbol — indicates that no toxicity was observed; conditions: 500 ppm sprayed; checked visually after 10 days
Procedure: (§3) An emulsifiable concentrate prepared as described in Formulation Example 2 was diluted with water to a concentration of 500 ppm based on the effective ingredient and sprayed sufficiently using a spray-gun onto various test plants. The plants were kept in a green house. After 10 days from the application phytotoxicity was checked visually. The test was replicated 3 times for each compound.

Beet = assay: Phytotoxicity on various crops; type: in vivo; design: key: Symbol — indicates that no toxicity was observed; conditions: 500 ppm sprayed; checked visually after 10 days
Procedure: as §3

Cabbage = assay: Phytotoxicity on various crops; type: in vivo; design: key: Symbol — indicates that no toxicity was observed; conditions: 500 ppm sprayed; checked visually after 10 days
Procedure: as §3

Cotton = assay: Phytotoxicity on various crops; type: in vivo; design: key: Symbol — indicates that no toxicity was observed; conditions: 500 ppm sprayed; checked visually after 10 days
Procedure: as §3

Cucumber = assay: Phytotoxicity on various crops; type: in vivo; design: key: Symbol — indicates that no toxicity was observed; conditions: 500 ppm sprayed; checked visually after 10 days
Procedure: as §3

Green Pepper = assay: Phytotoxicity on various crops; type: in vivo; design: key: Symbol — indicates that no toxicity was observed; conditions: 500 ppm sprayed; checked visually after 10 days
Procedure: as §3

Kidney Bean = assay: Phytotoxicity on various crops; type: in vivo; design: key: Symbol — indicates that no toxicity was observed; conditions: 500 ppm sprayed; checked visually after 10 days
Procedure: as §3

Rice = assay: Phytotoxicity on various crops; type: in vivo; design: key: Symbol — indicates that no toxicity was observed; conditions: 500 ppm sprayed; checked visually after 10 days
Procedure: as §3

Tea = assay: Phytotoxicity on various crops; type: in vivo; design: key: Symbol — indicates that no toxicity was observed; conditions: 500 ppm sprayed; checked visually after 10 days
Procedure: as §3

Tomato = assay: Phytotoxicity on various crops; type: in vivo; design: key: Symbol — indicates that no toxicity was observed; conditions: 500 ppm sprayed; checked visually after 10 days
Procedure: as §3

egg plant = assay: Phytotoxicity on various crops; type: in vivo; design: key: Symbol — indicates that no toxicity was observed; conditions: 500 ppm sprayed; checked visually after 10 days
Procedure: as §3

tobacco cutworm [2] = assay: Long-lasting insecticidal effect on tobacco cutworm (sprayed cabbage plantlet); type: in vivo, Prodenia litura; conditions: Table 5, concentration 500 (unit not given), mortality after 48 hours
Procedure: (§4) (A) An emulsifiable concentrate prepared as described in Formulation Example 2 was diluted with water to a predetermined concentration and sprayed onto a cabbage plantlet in a flower pot of 15 cm in diameter using a spray-gun sufficiently and the tests plants were placed in a green house. The leaves of the plants were cut off on the 3rd, 5th, 7th, 10th and 15th day and placed in a 60 ml volume cup and 3rd-instar larvae of tobacco cutworm were put in each cup. The cups were kept in an incubator (25°C). After 48 hours, percent mortality was assessed. The tests was replicated 3 times for each compound using 30 insects in each test.
as §4, with “(B) An” for “(A) An”, “Example 3” for “Example 2”, “and 1 5th” for “and 15th”

[3] = Table 1, 100 ppm, wettable powder as Formulation Example 5
[4] = Table 1, 500 ppm, wettable powder as Formulation Example 5
[5] = Table 3, 500 ppm, emulsifiable concentrate as Formulation Example 1
[6] = Table 2, 100 ppm, wettable powder as Formulation Example 7
[7] = Table 4, 100 ppm, emulsifiable concentrate as Formulation Example 3

For `COP(=O)(OC)C(O)C(Cl)(Cl)Cl` (centres unmarked) [Dipterex, dimethyl 2,2,2-trichloro-1-hydroxyethyl phosphonate, reference compound], the “Percent Mortality (%)” value (rice stem borer; [3]) was 100% and the “Percent Mortality (%)” value (rice stem borer; [4]) was 100%.
In the case of “O-isopropyl-S-isopropyl-O-(2,4,4-trimethyl-1,4-benzopyran-7-yl)phosphorothioate [Compound No. 7]”, the “Percent Mortality (%)” value (rice stem borer; [4]) is reported as 100%, the “Percent Mortality (%)” value (tobacco cutworm [1]; [5]) is reported as 100% and the “Phytotoxicity: Apple” value (Apple) is reported as “—”. The “Phytotoxicity: Beet” value (Beet) was “—”, the “Phytotoxicity: Cabbage” value (Cabbage) was “—” and the “Phytotoxicity: Cotton” value (Cotton) was “—”. For the same molecule, the “Phytotoxicity: Cucumber” value (Cucumber) was “—”, the “Phytotoxicity: Green Pepper” value (Green Pepper) was “—” and the “Phytotoxicity: Kidney Bean” value (Kidney Bean) was “—”. For the same molecule, the “Phytotoxicity: Rice” value (Rice) was “—”, the “Phytotoxicity: Tea” value (Tea) was “—” and the “Phytotoxicity: Tomato” value (Tomato) was “—”. The “Phytotoxicity: Egg Plant” value (egg plant) was “—”.
With `CCCSP(=O)(Oc1ccc2c(c1)OC(C)=CC2(C)C)OC(C)CC` (centres unmarked) [compound 15] the “Percent Mortality (%)” value (rice stem borer; [4]) was 100%, the “Percent Mortality (%)” value (tobacco cutworm [1]; [5]) was 100% and the “Phytotoxicity: Apple” value (Apple) was “—”. For the same molecule, the “Phytotoxicity: Beet” value (Beet) was “—”, the “Phytotoxicity: Cabbage” value (Cabbage) was “—” and the “Phytotoxicity: Cotton” value (Cotton) was “—”. For the same molecule, the “Phytotoxicity: Cucumber” value (Cucumber) was “—”, the “Phytotoxicity: Green Pepper” value (Green Pepper) was “—” and the “Phytotoxicity: Kidney Bean” value (Kidney Bean) was “—”. For the same molecule, the “Phytotoxicity: Rice” value (Rice) was “—”, the “Phytotoxicity: Tea” value (Tea) was “—” and the “Phytotoxicity: Tomato” value (Tomato) was “—”. The “Phytotoxicity: Egg Plant” value (egg plant) was “—”.
`CCOP(=O)(Oc1ccc2c(c1)OC(C)=CC2(C)C)SCC` (centres unmarked) [Compound No. 8] was tested, and the “Percent Mortality (%)” value (rice stem borer; [4]) was 100%, the “Percent Mortality (%)” value (tobacco cutworm [1]; [5]) was 100% and the “Phytotoxicity: Apple” value (Apple) was “—”. For the same molecule, the “Phytotoxicity: Beet” value (Beet) was “—”, the “Phytotoxicity: Cabbage” value (Cabbage) was “—” and the “Phytotoxicity: Cotton” value (Cotton) was “—”. For the same molecule, the “Phytotoxicity: Cucumber” value (Cucumber) was “—”, the “Phytotoxicity: Green Pepper” value (Green Pepper) was “—” and the “Phytotoxicity: Kidney Bean” value (Kidney Bean) was “—”. The “Phytotoxicity: Rice” value (Rice) was “—”, the “Phytotoxicity: Tea” value (Tea) was “—” and the “Phytotoxicity: Tomato” value (Tomato) was “—”. The “Phytotoxicity: Egg Plant” value (egg plant) was “—”.
For `CCCOP(=O)(Oc1ccc2c(c1)OC(C)=CC2(C)C)SC` (centres unmarked) [Compound No. 13], the “Percent Mortality (%)” value (rice stem borer; [4]) was 100%, the “Percent Mortality (%)” value (tobacco cutworm [1]; [5]) was 100% and the “Phytotoxicity: Apple” value (Apple) was “—”. The “Phytotoxicity: Beet” value (Beet) was “—”, the “Phytotoxicity: Cabbage” value (Cabbage) was “—” and the “Phytotoxicity: Cotton” value (Cotton) was “—”. The “Phytotoxicity: Cucumber” value (Cucumber) was “—”, the “Phytotoxicity: Green Pepper” value (Green Pepper) was “—” and the “Phytotoxicity: Kidney Bean” value (Kidney Bean) was “—”. The “Phytotoxicity: Rice” value (Rice) was “—”, the “Phytotoxicity: Tea” value (Tea) was “—” and the “Phytotoxicity: Tomato” value (Tomato) was “—”. For the same molecule, the “Phytotoxicity: Egg Plant” value (egg plant) was “—”.
In the case of `COP(=O)(NC(C)=O)SC` (centres unmarked) [Orthene, O,S-dimethyl acetylphosphoramidothioate, reference compound], the “Percent Mortality (%)” value (tobacco cutworm [1]; [5]) is reported as 90.0%.
In the case of `CCCOP(=O)(Oc1ccc2c(c1)OC(C)=CC2(C)C)SCCC` (centres unmarked) [Compound No. 3], the “Percent Mortality (%)” value (rice stem borer; [4]) is reported as 100%, the “Percent Mortality (%)” value (tobacco cutworm [1]; [5]) is reported as 100% and the “Phytotoxicity: Apple” value (Apple) is reported as “—”. For the same molecule, the “Phytotoxicity: Beet” value (Beet) was “—”, the “Phytotoxicity: Cabbage” value (Cabbage) was “—” and the “Phytotoxicity: Cotton” value (Cotton) was “—”. For the same molecule, the “Phytotoxicity: Cucumber” value (Cucumber) was “—”, the “Phytotoxicity: Green Pepper” value (Green Pepper) was “—” and the “Phytotoxicity: Kidney Bean” value (Kidney Bean) was “—”. For the same molecule, the “Phytotoxicity: Rice” value (Rice) was “—”, the “Phytotoxicity: Tea” value (Tea) was “—” and the “Phytotoxicity: Tomato” value (Tomato) was “—”. The “Phytotoxicity: Egg Plant” value (egg plant) was “—”.
`CCCCOP(=O)(Oc1ccc2c(c1)OC(C)=CC2(C)C)SCCC` (centres unmarked) [compound 4] was tested, and the “Percent Mortality (%)” value (rice stem borer; [4]) was 100%, the “Percent Mortality (%)” value (tobacco cutworm [1]; [5]) was 100% and the “Phytotoxicity: Apple” value (Apple) was “—”. The “Phytotoxicity: Beet” value (Beet) was “—”, the “Phytotoxicity: Cabbage” value (Cabbage) was “—” and the “Phytotoxicity: Cotton” value (Cotton) was “—”. The “Phytotoxicity: Cucumber” value (Cucumber) was “—”, the “Phytotoxicity: Green Pepper” value (Green Pepper) was “—” and the “Phytotoxicity: Kidney Bean” value (Kidney Bean) was “—”. The “Phytotoxicity: Rice” value (Rice) was “—”, the “Phytotoxicity: Tea” value (Tea) was “—” and the “Phytotoxicity: Tomato” value (Tomato) was “—”. For the same molecule, the “Phytotoxicity: Egg Plant” value (egg plant) was “—”.
With `CCCSP(=O)(OCC)Oc1ccc2c(c1)OC(CC)=C(C)C2(CC)CC` (centres unmarked) [Compound No. 21, O-ethyl-S-propyl-O-(2,4,4-triethyl-3-methyl-1,2-benzopyran-7-yl)phosphorothioate] the “Percent Mortality (%)” value (rice stem borer; [3]) was 100%, the “Percent Mortality (%)” value (rice stem borer; [4]) was 100% and the “Percent Mortality (%)” value (rice stem borer; [6]) was 100%. For the same molecule, the “Percent Mortality (%)” value (tobacco cutworm [1]; [7]) was 100%, the “Phytotoxicity: Apple” value (Apple) was “—” and the “Phytotoxicity: Beet” value (Beet) was “—”. The “Phytotoxicity: Cabbage” value (Cabbage) was “—”, the “Phytotoxicity: Cotton” value (Cotton) was “—” and the “Phytotoxicity: Cucumber” value (Cucumber) was “—”. The “Phytotoxicity: Green Pepper” value (Green Pepper) was “—”, the “Phytotoxicity: Kidney Bean” value (Kidney Bean) was “—” and the “Phytotoxicity: Rice” value (Rice) was “—”. The “Phytotoxicity: Tea” value (Tea) was “—”, the “Phytotoxicity: Tomato” value (Tomato) was “—” and the “Phytotoxicity: Egg Plant” value (egg plant) was “—”.
In the case of `CCOP(=S)(Oc1ccc2c(c1)OC(C)=CC2(C)C)SCC` (centres unmarked) [compound 12], the “Percent Mortality (%)” value (rice stem borer; [4]) is reported as 100%, the “Percent Mortality (%)” value (tobacco cutworm [1]; [5]) is reported as 100% and the “Phytotoxicity: Apple” value (Apple) is reported as “—”. The “Phytotoxicity: Beet” value (Beet) was “—”, the “Phytotoxicity: Cabbage” value (Cabbage) was “—” and the “Phytotoxicity: Cotton” value (Cotton) was “—”. The “Phytotoxicity: Cucumber” value (Cucumber) was “—”, the “Phytotoxicity: Green Pepper” value (Green Pepper) was “—” and the “Phytotoxicity: Kidney Bean” value (Kidney Bean) was “—”. The “Phytotoxicity: Rice” value (Rice) was “—”, the “Phytotoxicity: Tea” value (Tea) was “—” and the “Phytotoxicity: Tomato” value (Tomato) was “—”. The “Phytotoxicity: Egg Plant” value (egg plant) was “—”.
In the case of `COP(=S)(OC)Oc1ccc([N+](=O)[O-])c(C)c1` [Sumithion, dimethyl(3-methyl-4-nitrophenyl)thiophosphate, reference compound], the “Percent Mortality (%)” value (rice stem borer; Table 2, concentration not given) is reported as 100%.
In the case of `CCOP(=S)(Oc1cccc2c1C(C)=CC(C)(C)O2)SC(C)CC` (centres unmarked) [Compound No. 27], the “Percent Mortality (%)” value (rice stem borer; [6]) is reported as 100%, the “Percent Mortality (%)” value (tobacco cutworm [1]; [7]) is reported as 100% and the “Phytotoxicity: Apple” value (Apple) is reported as “—”. The “Phytotoxicity: Beet” value (Beet) was “—”, the “Phytotoxicity: Cabbage” value (Cabbage) was “—” and the “Phytotoxicity: Cotton” value (Cotton) was “—”. For the same molecule, the “Phytotoxicity: Cucumber” value (Cucumber) was “—”, the “Phytotoxicity: Green Pepper” value (Green Pepper) was “—” and the “Phytotoxicity: Kidney Bean” value (Kidney Bean) was “—”. The “Phytotoxicity: Rice” value (Rice) was “—”, the “Phytotoxicity: Tea” value (Tea) was “—” and the “Phytotoxicity: Tomato” value (Tomato) was “—”. For the same molecule, the “Phytotoxicity: Egg Plant” value (egg plant) was “—”.
With `CNC(=O)ON=C(C)SC` [Lannate, S-methyl N-(methylcarbamoyloxy)thioacetimidate, reference compound] the “Percent Mortality After Application 3rd Day” value (tobacco cutworm [2]; leaves cut on 3rd day) was 80%, the “Percent Mortality After Application 5th Day” value (tobacco cutworm [2]; leaves cut on 5th day) was 30% and the “Percent Mortality After Application 7th Day” value (tobacco cutworm [2]; leaves cut on 7th day) was 7%. For the same molecule, the “Percent Mortality After Application 10th Day” value (tobacco cutworm [2]; leaves cut on 10th day) was 0% and the “Percent Mortality After Application 15th Day” value (tobacco cutworm [2]; leaves cut on 15th day) was 0%.
